“Also recorded” adds a separate entry of the source.
Legend:
murine skin wounds = experiment: Wound induced hair neogenesis (WIHN), regenerated hair follicles counted by CSLM; format: in vivo, mouse
Description: Wound Induced Hair Neogenesis (WIHN). All animal protocols are approved by the Johns Hopkins University Animal Care and Use Committee. C57BL/6J, B6; 129SF2/J and TLR3 null mice (B6; 129S1-Tlr3tm1Flv/J) were obtained from The Jackson Laboratory. Mixed strain (C57BL/6J×FVB/N×SJL/J) animals were provided by Dr. Jean Richa (University of Pennsylvania).
A 1 cm2 excisional full-thickness wounds to the level of skeletal muscle on the backs of 21-day old male and female mice was performed as previously described (Ito et al., 2007; Nelson et al., 2013). Numbers of regenerated hair follicles were quantified in the re-epithelialized skin by non-invasive confocal scanning laser microscopy (CSLM) as published (Fan et al., 2011). For all experiments, […] of “intervention” was injected into healing wound (under scab) or applied topically into open wound as shown in Table 1 below.
Treatments during WIHN assay. Recombinant mouse IL-6 protein (R&D Systems, Minneapolis, Minn.) and poly(I:C) (High Molecular Weight; InVivogen, San Diego, Calif.) was diluted in sterile PBS immediately prior to injection. Cucurbitacin I (Tocris Biosciences/R&D Systems, Minneapolis Minn.) was dissolved in 10% EtOH/PBS to a final concentration of 1 mg/mL prior to injection. RNase III enzyme (Life Technologies, Grand Island N.Y.) was diluted in supplied reaction buffer

P-STAT3, TAp63, ΔNp63 = experiment: Western blot of wound tissue in wt mice (P-STAT3, TAp63, ΔNp63); format: in vivo, mouse
Description: FIG. 2: IL-6 and pSTAT3 mediate TLR3 effects on WIHN. A) Mean fold change in IL-6 mRNA in healed scars at WD20-24 in HR vs. LR strains of mice as determined by qRT-PCR and normalized to housekeeping gene β-actin. B) Mean fold change in IL-6 mRNA after poly (I:C) addition (20 μg/mL) to NHEK for 6 hours or in strain matched wt and TLR3 KO mice 6 hours after wounding as determined by qRT-PCR and normalized to housekeeping gene RPLP0 (NHEK) or β-actin (mouse). C) Time course of IL-6 mRNA and protein expression throughout early stage wound healing in wt mice, as determined by qRT-PCR and ELISA, respectively. D) IL-6 (middle panels) and P-STAT3 (right panels; arrows) immunohistochemistry of healing scars at WD5 and WD8 in wt mice. Scale bar=50 μm. E) Cross-section histology of healed scar at WD22 after a single injection of IL-6 (25 ng) or PBS control at WD7. Regenerated hair follicles are marked with arrows. Scale bar=100 μm. F) Regenerated hair shafts (white, arrows) at ˜WD58-62 as visualized by dissecting microscope. G) WIHN in wt mice after single dose of rmIL-6 (25 ng) compared to PBS control as measured by CSLM. H) WIHN levels in wt mice after cucurbitacin I (2 mg/kg) or control as measured by CSLM. I) P-STAT 3 levels in the presence of cucurbitacin I (+) compared to control (−) in wt mice as measured by western blot and normalized to STAT3. PC=P-STAT3 positive control cell lysate. *p<0.05 by Student's T-test or Single Factor ANOVA.
FIG. 4: dsRNA and IL-6 induce keratinocyte stem cell genes. A) Mean fold change in TAp63 mRNA after IL-6 protein (50 ng/mL)+/−cucurbitacin I in NHEK as determined by qRT-PCR and normalized to housekeeping gene, RPLP0. B) TAp63 protein levels after IL-6 (25 ng) compared to PBS control in wt mice measured by western blot; normalized to β-actin. C) TAp63 and ΔNp63 protein levels after cucurbitacin I (2 mg/kg) compared to PBS control in wt mice measured by western blot; normalized to β-actin. D) Mean fold change in KRT1 mRNA with TAp63-specific or scrambled control siRNA in the presence of IL-6 (50 ng/mL) in NHEK as determined by qRT-PCR and normalized to housekeeping gene, RPLP0. E) Mean fold change in CBX4 mRNA after poly (I:C) (20 μg/mL) addition to NHEK for 24 hours as determined by qRT-PCR and normalized as in 4D. F) Mean fold change in CBX4 mRNA after IL-6 (50 ng/mL)+/−cucurbitacin I in NHEK for 24 hours as determined by qRT-PCR and normalized as in 4D. G) Mean fold change in KRT15 mRNA 72 hours after 24 hours of poly (I:C) (20 μg/mL) treatment to NHEK as determined by qRT-PCR and normalized as in 4D. H) Flow cytometry analysis of KRT15 protein expression 72 hours after 24 hours of poly (I:C) (20 μg/mL) or control to NHEK. *p<0.05 by Student's T-test or Single Factor ANOVA.

[1] = test system: neo-natal human epidermal keratinocytes (NHEK); experiment: qRT-PCR gene expression in cultured keratinocytes (NHEK); format: cell-based
Description: Cell Culture. Neo-natal human epidermal keratinocytes (Lonza, Walkersville, Md.) or lab-isolated foreskin keratinocytes were cultured in keratinocyte medium with added supplements (KGMGOLD). Treatment with recombinant IL-6 protein (50 ng/mL), cucurbitacin I (10-100 nM), poly (I:C) (20 μg/mL) and TLR3 pharmacological inhibitor (80 μM; EMD Millipore, Billerica, Mass.) was applied in basal medium containing transferrin, hydrocortisone and antibiotics for up to 24 hours. After 24 hours, treatment medium was replaced with KGM-GOLD and isolation of RNA as indicated.
Nucleofection. Nucleofection with siGENOME SMARTpoo1 Human Tap63, TLR3, REL-A and siCONTROL siRNA duplex oligonucleotides (Dharmacon-ThermoFischer Scientific) was performed in NHEK using the Amaxa 4D-Nucleofector according to manufacturer's instruction. Plated cells were treated with recombinant human IL-6 (50 ng/mL) protein or poly(I:C) (20 μg/mL) for 24 hours. Afterwards, treatment medium was removed and replaced with KGMGOLD complete medium for the duration of the experiment. Levels of appropriate gene expression were assessed by qRT-PCR using inventoried TaqMan reagents in three independent experiments.
Quantitative Real-Time PCR (qRT-PCR). Mouse skin was harvested prior to wounding and throughout wounding as described (Nelson et al., 2013). RNA was isolated from NHEK with RNeasy Mini Kit (Qiagen, Valencia, Calif.) with DNase I digestion. qRT-PCR was performed for genes of interest and 18S or ribosomal protein, large PO (RPLP0) (housekeeping genes) using inventoried TaqMan reagents. Differences in gene expression were assessed by comparative ΔΔCT values with fold change calculations.

[2] = test system: normal nonwounded murine skin; experiment: Hair cycle in non-wounded murine skin after injection during telogen; format: in vivo; conditions: poly (I:C) 200 ng/mouse injected during telogen
NHEK [3] = experiment: Immunocytochemistry: keratinocyte morphology and beta-catenin nuclear localization; format: cell-based, human; conditions: 72 hours after 24 hours of poly (I:C) 20 μg/mL
Description: […] Fixed cells were incubated with primary antibodies overnight, appropriate Alexa Fluor secondary antibodies and counterstained using VectaShield DAPI mounting medium (Vector Labs, Burlingame, Calif.). Slides were imaged at 60× magnification using the Nikon C1si True Spectral Imaging Confocal Laser Scanning Microscope system (Cell Imaging Core Facility, Sidney Kimmel Comprehensive Cancer Center, Johns Hopkins, Baltimore, Md.). Cell morphology and beta-catenin nuclear localization were quantified using the CellProfiler image analysis software (www.cellprofiler.org) (Carpenter et al., 2006) from confocal images of nuclei.

[4] = test system: β-catenin and GLI2 promoters; experiment: ChIP-qPCR of STAT3 occupancy at promoters in keratinocytes; format: cell-based, human; conditions: poly (I:C) treated keratinocytes, N=5, p<0.05
Description: Chromatin Immunoprecipitation. Poly(I:C) treated and control keratinocytes were crosslinked in 1% formaldehyde for 10 minutes, followed by addition of glycine for 5 minutes to quench unreacted formaldehyde. Cells were processed with EZ-ChIP Kit (Millipore) according to the manufacturer's instructions. Crosslinked protein-DNA complexes were captured with rabbit anti-Stat3 or normal rabbit IgG (sc-482X; sc-2027X, SCBT) antibodies. Real-time quantitative PCR was performed to determine the relative abundance of the promoter DNA sequence, associated with Stat3. Primers are detailed in Expanded Experimental Methods. Primers and graphics were designed based on ENCODE data (UCSC Genome Browser).
ChIP. The amplicon for Gli2 promoter site 4 encompasses TTCCAGGAA (SEQ ID NO:2) on chr2: 121621123-121621782 in the Encode database. It was amplified with the primer sequences: a) forward: 5 […]3′ (SEQ ID NO:3); b) reverse: 5′TCCTGTTCACATTGACGCC3′ (SEQ ID NO:4). The amplicon for β-catenin promoter site 4 encompasses TTCCTGGAA (SEQ ID NO:5) on chr3: 41264037-41264357 in the Encode database. This was amplified with the primer sequences: a) forward: 5′[…]3′ (SEQ ID NO:6); b) reverse: 5′[…]3′ (SEQ ID NO:7).

NHEK [5] = experiment: Flow cytometry of KRT15 and vimentin in keratinocytes; format: cell-based, human
From the text: Flow Cytometry. Keratinocytes and fibroblasts were fixed, permeabilized (BD Cytofix/Cytoperm kit), and stained with antibodies against human vimentin (BD Pharmingen clone RV202) and KRT15 (Abam clone LHK15) labeled with a chromophore preconjugated to Fab (Zenon mouse IgG labeling kit). Data was collected on a dual-laser flow cytometer (BD FACSCalibur) followed by FlowJo 10 (TreeStar) software analysis.

healed murine wounds = experiment: Histology and immunohistochemistry of healed mouse scars (epidermal thickness, cleaved caspase 3, Ki-67); format: in vivo
Description: Immunohistochemistry, Immunocytochemistry and Histology. Immunohistochemistry was performed on formalin-fixed paraffin-embedded mouse skin samples using the avidin-biotin complex method and AEC development (Vector Laboratories). Indicated antibodies were applied overnight. Sections were counterstained with hematoxylin. Images were captured at 40× magnification using a Nikon Optiphot microscope and Nikon Elements F software. Histology was assessed by H&E after IL-6 addition. The epidermal thickness from the basal layer keratinocytes to beginning of stratum corneum in three locations per healed mouse wound in multiple histology sections was measured by Image J software.

[6] = cucurbitacin I 2 mg/kg vs PBS, western blot
[7] = IL-6 50 ng/mL + cucurbitacin I, NHEK, 24 hours
[8] = 72 hours after 24 hours of poly (I:C) 20 μg/mL, NHEK
[9] = poly (I:C) 20 μg/mL treatment, NHEK
[10] = poly (I:C) 20 μg/mL, NHEK, 24 hours

CC(C)(O)/C=C/C(=O)[C@](C)(O)[C@H]1[C@H](O)C[C@@]2(C)[C@@H]3CC=C4[C@@H](C=C(O)C(=O)C4(C)C)[C@]3(C)C(=O)C[C@]12C [cucurbitacin I]
decrease in the number of regenerated follicles (murine skin wounds; wt C57BL/6J mice, cucurbitacin I 2 mg/kg injected at WD7, CSLM ~WD20-24): greater than 3 fold
ANp63 protein (P-STAT3, TAp63, ΔNp63; [6]): corresponding increase
TAp63 protein (P-STAT3, TAp63, ΔNp63; [6]): decrease
STAT3 phosphorylation (P-STAT3, TAp63, ΔNp63; cucurbitacin I 2 mg/kg, western blot normalized to STAT3): strongly suppressed
effect on IL-6-induced TAp63 mRNA increase ([1]; IL-6 50 ng/mL + cucurbitacin I, NHEK): reversed
effect on IL-6-induced KRT1 decrease [1, 7]: reversed
effect on induced CBX4 increase [1, 7]: reversed

Polyinosinic:polycytidylic acid [poly (I:C)]
stimulatory effect on WIHN in TLR3 null mice (murine skin wounds; TLR3 KO mice, poly (I:C) 200 ng vs PBS, CSLM): abrogated
number of regenerated follicles (WIHN) (murine skin wounds; wt mice, single poly (I:C) 200 ng injected into wound at WD3 vs PBS, CSLM ~WD20-24): greater number of regenerated follicles
effect on hair cycle (anagen activation) in nonwounded skin [2]: does not affect the hair cycle; also recorded: no activation of anagen
amount of nuclear β-catenin (NHEK [3]): doubled
keratinocyte length-width ratio (NHEK [3]): near doubling
keratinocyte morphology (NHEK [3]): long, spindle-like morphology
STAT3 occupation of GLI2 promoter [4]: significant increase
STAT3 occupation of β-catenin promoter [4]: significant increase
percentage of KRT15 expressing cells by FACS (NHEK [5]; [8]): nearly doubled
vimentin protein expression by flow cytometry (NHEK [5]; poly (I:C) treated NHEK vs control keratinocytes and fibroblasts): intermediate between that of control keratinocytes and fibroblasts
KRT15 mRNA expression [1, 8]: significantly increased
vimentin (VIM) mRNA expression ([1]; following poly (I:C) 20 μg/mL for 24 hours, indicated time points, NHEK): continued to increase in a time-dependent fashion
EDAR expression [1, 9]: increased
GLI1 expression [1, 9]: increased
LEF1 expression [1, 9]: up-regulated
SHH expression [1, 9]: increased
induction of IL-6 mRNA ([1]; poly (I:C) 20 μg/mL, NHEK, 6 hours): greater than 30 fold
CBX4 expression [1, 10]: increase
KRT1 expression [1, 10]: nearly complete loss
filaggrin (FLG) expression [1, 10]: nearly complete loss
E-cadherin epithelial marker ([1]; same conditions as vimentin, poly (I:C) treated NHEK): not reduced

B1: IL-6: recombinant mouse IL-6 protein in mice; recombinant human IL-6 in NHEK (protein, UniProt P08505 25-211, looked up)
Interleukin-6: FPTSQVRRGDFTEDTTPNRPVYTTSQVGGLITHVLWEIVEMRKELCNGNSDCMNNDDALAENNLKLPEIQRNDGCYQTGYNQEICLLKISSGLLEYHSYLEYMKNNLKDNKKDKARVLQRDTETLIHIFNQEVKDLHKIVLPTPISNALLTDKLESQKEWLRTKTIQFILKSLEEFLKVTLRSTRQT
increase in the number of regenerated follicles vs vehicle (murine skin wounds; wt C57BL/6J mice, single rmIL-6 25 ng injected at WD7, CSLM ~WD20-24): ~3 fold
increase in the amount of TAp63 protein (P-STAT3, TAp63, ΔNp63; IL-6 25 ng vs PBS, western blot normalized to β-actin): 2.5 fold
apoptosis or proliferation (cleaved caspase 3, Ki-67) (healed murine wounds; healed murine wounds after rmIL-6 treatment): no alterations
reduction in epidermal thickness vs controls (healed murine wounds; healed scars, IL-6 25 ng at WD7 vs PBS): 2 fold
TAp63 mRNA ([1]; IL-6 50 ng/mL, NHEK): modest increase
CBX4 expression ([1]; IL-6 50 ng/mL, NHEK, 24 hours): increase
Keratin 1 (KRT1) differentiation marker expression ([1]; IL-6 50 ng/mL, NHEK, 24 hours): profound decrease
